Where “and” joins values, the source holds several entries; their conditions need not be identical. Equal values may be shown once. Read-outs that look alike come from different tables or passages of the source.
Molecular target: T1, PAF receptor (specific receptor binding site on rabbit platelet plasma membranes) (Oryctolagus cuniculus, UniProt G1TEI7)
T1 construct: 100 μg of the platelet plasma membrane suspension; from tissue; host or cells: rabbit platelet plasma membranes
Test: inhibition of 3H-PAF binding to rabbit platelet plasma membrane
Settings: for IC50: 3H-PAF, pH 7.5, 0° C.
Procedure: They inhibit in vitro PAF-induced functions in both the cellular and tissue levels by changing the PAF binding to its specific receptor site. This ability to inhibit the PAF binding to its specific receptor binding site on rabbit platelet plasma membranes was measured by an assay recently developed by us.
The inhibition of H^3 -PAF binding to the rabbit platelet plasma membrane by a PAF antagonist of Formula (I) was determined by isotopic labeling and filtration techniques. Generally, a series of Tris-buffered solutions of the selected antagonist at predetermined concentrations were prepared. Each of these solutions contains 1 pmole of ^3 H-PAF, a known amount of the test antagonist, and a sufficient amount of the pH 7.5 Tris-buffer solution (10 mM Tris, 0.25% bovine serum albumin, and 150 mM NaCl per ml water) to make the final volume of 1 ml. After adding into a set of test tubes each with 100 μg of the platelet plasma membrane suspension (S. B. Hwang, et al., Biochemistry, Vol. 22, pp. 4756-4763, 1983) and one of the Tris-buffer solutions described above, the resulting mixture in each test tube was incubated at 0° C. for about one hour or until the reaction was complete. Two control samples, one of which (C1) contains all the ingredients described above except the antagonist and the other (C 2) contains C1 plus a 1000-fold excess of unlabeled PAF, were also prepared and incubated simultaneously with the test samples. After the incubation was completed, the contents of each test tube were filtered under vacuo through a Whatman GF/C fiberglass filter and the residue washed rapidly several times with a total of 20 ml cold (0°-5° C.) Tris-buffer solution. Each washed residue was then suspended in 10 ml scintillation solution (Aquasol 2, New England Nuclear, Conn.) and the radioactivity was counted in a Packard Tri-Carb 460CD Liquid Scintillation System. Defining the counts from a test sample as "Total binding with antagonist"; the counts from the control sample C1, as "Total binding C1 "; and the counts from the control sample C2 as "non-specific binding C2 ", the percent inhibition of each test antagonist can be determined by the following equation: [formula]

[1] = Table (A), at 300 nM, read-out: PAF Receptor Binding Inhibition, Percent Inhibition

T1 sequence (G1TEI7 1-342): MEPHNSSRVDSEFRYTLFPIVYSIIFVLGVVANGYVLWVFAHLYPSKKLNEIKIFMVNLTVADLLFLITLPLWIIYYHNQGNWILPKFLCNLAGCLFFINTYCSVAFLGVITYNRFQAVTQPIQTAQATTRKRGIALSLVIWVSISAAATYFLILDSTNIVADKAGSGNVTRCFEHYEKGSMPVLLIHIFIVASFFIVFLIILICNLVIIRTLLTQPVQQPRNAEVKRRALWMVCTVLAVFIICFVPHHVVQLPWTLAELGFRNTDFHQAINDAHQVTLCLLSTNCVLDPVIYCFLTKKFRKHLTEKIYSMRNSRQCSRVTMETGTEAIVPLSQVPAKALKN

| Compound | IC50 (Table (A)) | also measured |
| --- | --- | --- |
| C#CCOC1[C@H](c2cc(OC)c(OC)c(OC)c2)CC[C@H]1c1cc(OC)c(OC)c(OC)c1 (relative stereo) | 1 nM |  |
| CCOC(=O)COC1[C@H](c2cc(OC)c(OC)c(OC)c2)CC[C@H]1c1cc(OC)c(OC)c(OC)c1 (relative stereo) | 3.6 nM |  |
| C=CCOC1[C@H](c2cc(OC)c(OC)c(OC)c2)CC[C@H]1c1cc(OC)c(OC)c(OC)c1 (relative stereo) | 4.8 nM |  |
| COc1cc([C@@H]2CC[C@@H](c3cc(OC)c(OC)c(OC)c3)C2OCC2CC2)cc(OC)c1OC (relative stereo) | 19 nM |  |
| CCOC1[C@H](c2cc(OC)c(OC)c(OC)c2)CC[C@H]1c1cc(OC)c(OC)c(OC)c1 (relative stereo) | 30 nM |  |
| CCCOC1[C@H](c2cc(OC)c(OC)c(OC)c2)CC[C@H]1c1cc(OC)c(OC)c(OC)c1 (relative stereo) | 30 nM |  |
| COCCOC1[C@H](c2cc(OC)c(OC)c(OC)c2)CC[C@H]1c1cc(OC)c(OC)c(OC)c1 (relative stereo) | 100 nM |  |
| COc1cc([C@@H]2CC[C@@H](c3cc(OC)c(OC)c(OC)c3)C2OCCN(C)C)cc(OC)c1OC (relative stereo) | 100 nM |  |
| COc1cc([C@@H]2CC[C@@H](c3cc(OC)c(OC)c(OC)c3)C2OCC(=O)N(C)C)cc(OC)c1OC (relative stereo) |  | inhibition at 0.3 µM [1]: 23% |
| COc1cc([C@@H]2CC[C@@H](c3cc(OC)c(OC)c(OC)c3)C2OCC(=O)O)cc(OC)c1OC (relative stereo) |  | inhibition at 0.3 µM [1]: 16% |
| COc1cc([C@@H]2CC[C@@H](c3cc(OC)c(OC)c(OC)c3)C2)cc(OC)c1OC (relative stereo) [H, 1α,3β-bis(3,4,5-trimethoxyphenyl)cyclopentane] | 20 nM |  |
| COc1cc([C@H]2CC[C@H](c3cc(OC)c(OC)c(OC)c3)C2=NO)cc(OC)c1OC (relative stereo) [NOH, trans-2,5-bis(3,4,5-trimethoxyphenyl)cyclopentanone oxime] | 5.8 nM |  |
| COc1cc([C@@H]2CC[C@@H](c3cc(OC)c(OC)c(OC)c3)C2OCc2ccccc2)cc(OC)c1OC (relative stereo) [OCH2 C6 H5] | 48 nM |  |
| CCCOc1c(OC)cc([C@H]2CC[C@H](c3cc(OC)c(OC)c(OC)c3)[C@@H]2OC)cc1C(N)=O (relative stereo) [OCH3, (CO)NH2] |  | IC50 (Table (B)): 124 nM and 47 nM |
| CCCOc1c(Br)cc([C@@H]2CC[C@@H](c3cc(OC)c(OC)c(OC)c3)[C@H]2OC)cc1OC (relative stereo) [OCH3, Br] |  | IC50 (Table (B)): 47 nM |
| CCCOc1c(OC)cc([C@@H]2CC[C@@H](c3cc(OC)c(OC)c(OC)c3)[C@@H]2OC)cc1S(C)(=O)=O (relative stereo) [OCH3, SO2 CH3] |  | IC50 (Table (B)): 4.3 nM and 3.8 nM |
| CCCOc1c(OC)cc([C@@H]2CC[C@@H](c3cc(OC)c(OC)c(OC)c3)[C@@H]2OC)cc1[S+](C)[O-] (relative stereo) [OCH3, SOCH3] |  | IC50 (Table (B)): 18 nM and 9.3 nM |
| COc1cc([C@@H]2CC[C@@H](c3cc(OC)c(OC)c(OC)c3)C2OC(C)=O)cc(OC)c1OC (relative stereo) [OCOCH3, 1α-acetoxy-2α,5β-bis(3,4,5-trimethoxypheny)cyclopentane] | 100 nM |  |
| CCCOc1c(OC)cc([C@@H]2CC[C@@H](c3cc(OC)c(OC)c(OC)c3)[C@@H]2O)cc1SC (relative stereo) [OH, SCH3] |  | PAF Receptor Binding Inhibition, Percent Inhibition (Table (B), at 300 nM, 0.3 µM): 38%; inhibition at 0.3 µM (Table (B), at 300 nM, read-out: PAF Receptor Binding Inhibition, Percent Inhibition): 23% |
| COc1cc([C@@H]2CC[C@@H](c3cc(OC)c(OC)c(OC)c3)C2O)cc(OC)c1OC (relative stereo) [OH, trans-2,5-bis(3,4,5-trimethoxyphenyl)cyclopentanol] |  | inhibition at 0.5 µM (Table (A), at 500 nM, read-out: PAF Receptor Binding Inhibition, Percent Inhibition): 84% |

Further lines, with some results ahead:

| IC50 (Table (A)) | Compound | also measured |
| --- | --- | --- |
| 5 nM | CON=C1[C@@H](c2cc(OC)c(OC)c(OC)c2)CC[C@@H]1c1cc(OC)c(OC)c(OC)c1 (relative stereo) [NOCH3, Trans-2,5-bis(3,4,5-trimethoxyphenyl)cyclopentanone-O-methyloxime] |  |
| 8.3 nM | COc1cc([C@@H]2CC[C@@H](c3cc(OC)c(OC)c(OC)c3)C2OC)cc(OC)c1OC (relative stereo) [OCH3, 1α-Methoxy-2α,5β-bis-(3,4,5-trimethoxyphenyl)cyclopentane] |  |

— patent US5132463A, “1,3-diaryl cyclopentanes and derivatives thereof as PAF antagonists” (Merck & Co., Inc., priority 1991, dated 1992)
